The source of these data is US11192849B2, “Compounds, compositions, and methods for modulating ferroptosis and treating excitotoxic disorders” (THE TRUSTEES OF COLUMBIA UNIVERSITY IN THE CITY OF NEW YORK, priority 2013, dated 2021).

The subject of test [1] is HT-1080 cells. Nature of the test: Inhibition of erastin (10 μM)-induced death in HT-1080 cells (Alamar Blue). The class given is cell-based, human. The conditions noted are these: for EC50: Homo sapiens. The method in brief:
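HT-1080 cells (1,000/well) were treated next day with 10 μM erastin plus a compound dilution series for 24 h. Alamar Blue (10% final) was then added for 6 h and fluorescence read at ex/em 530/590.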

The nature of test [2]: 2,2-Diphenyl-1-picrylhydrazyl (DPPH) cell-free antioxidant assay. Format: biochemical. The conditions noted are these: test compound 0.05 mM, 30 minutes. As to the method:
The stable radical DPPH (Blois, 1958) was dissolved in methanol to a final working concentration of 0.05 mM. This was prepared as follows. First, a 100× stock concentration (5 mM) was prepared by dissolving 3.9 mg DPPH in 2 mL methanol. Then, for 25 mL of 0.05 mM final working solution, 250 μL of the 5 mM solution was added to 24.75 mL of methanol. 1 mL of DPPH solution was added to a small volume (<5 μL) each test compound dissolved in DMSO. The final concentration of each test compound was 0.05 mM. Samples were inverted several times and allowed to incubate at room temperature for 30 minutes. Samples were then aliquoted to white 96-well solid-bottom dishes (Corning) and absorbance at 517 nm was recorded using a TECAN M200 plate reader. All values were normalized to background (methanol only). The experiment was repeated three times and the data was averaged.
In parallel with the above cell-based assay, a 2,2-diphenyl-1-picrylhydrazyl (DPPH) assay was used to examine the ability of each analog to scavenge free radicals in a cell-free in vitro solution—a test of intrinsic antioxidant capacity. […] Redox active analogs scavenged the DPPH radical by 60-90% within 30 minutes (FIG. 18a).
(The DPPH test is a chemical assay of radical scavenging.)

In test [3] the test system is HT-1080 cells. Nature of the test: HT-1080 cell proliferation (Vi-Cell). The conditions noted are these: over 48 hours. Format: cell-based, human. As to the method: Cell viability was typically assessed in 384-well format by Alamar Blue (Invitrogen) fluorescence (ex/em 530/590) measured on a Victor3 platereader (Perkin Elmer, Waltham, Mass.). In some experiments, Trypan Blue dye exclusion counting was performed using an automated cell counter (ViCell, Beckman-Coulter Inc., Brea, Calif.). Cell viability in test conditions is reported as a percentage relative to the negative control treatment.

The subject of test [4] is HT-1080 cells. Nature of the test: Cytosolic and lipid ROS production (H2DCFDA, C11-BODIPY flow cytometry) in HT-1080 cells. The class given is cell-based, human. Particulars: erastin (10 μM). The procedure:
The day before the experiment, 200,000 cells/well were seeded in 6-well dishes (Corning Inc., Corning, N.Y.). The day of the experiment, cells were treated with test compounds for the indicated times, then harvested by trypsinization, resuspended in 500 μL Hanks Balanced Salt Solution (HBSS, Gibco, Invitrogen Corp., Carlsbad, Calif.) containing either H2DCFDA (25 μM), C11-BODIPY(581/591) (2 μM) or MitoSOX (5 μM) (all from Molecular Probes, Invitrogen) and incubated for 10 minutes at 37° C. in a tissue culture incubator. Cells were then resuspended in 500 μL of fresh HBSS, strained through a […] cell strainer (BD Falcon, BD Biosciences, San Jose, Calif.), and analyzed using a flow cytometer (FACSCalibur or Accuri C6, BD Biosciences), which was equipped with 488-nm laser for excitation. Data was collected from the FL1 (H2DCFDA, C11-BODIPY) or FL2 channel (MitoSOX). A minimum of 10,000 cells were analyzed per condition.
(Flow cytometry measures light scatter and fluorescence of single cells or particles in a stream.)

Test [5] has as its system mouse kidney proximal tubules. Nature of the test: Hydroxyquinoline + iron induced cell death in isolated mouse kidney proximal tubules (LDH release). Format: cell-based. The conditions noted are these: 10 μM hydroxyquinoline and ferrous ammonium sulfate, 60 min. The procedure: Tubule preparation: 8-12 week old C57/BL6 female mice were euthanized with isoflurane. […] The cortices were then dissected and minced on an ice cold tile, then resuspended in additional Solution A for 8-10 min. of digestion at 37° C. followed by enrichment of proximal tubules using centrifugation on self-forming Percoll gradients as previously described for rabbit tubules.
Experimental procedures for isolated tubules: Tubules were suspended at 1.5-2.0 mg tubule protein/ml in a 95% air/5% CO2-gassed medium containing (in mM) 110 NaCl, 2.6 KCl, 25 NaHCO3, 2.4 KH2PO4, 1.25 CaCl2, 1.2 MgCl2, 1.2 MgSO4, 5 glucose, 4 sodium lactate, 0.3 alanine, 5 sodium butyrate, 2 glycine, and 1.0 mg/ml bovine gelatin (75 bloom) (Solution B). After precincubation for 15 min. at 37° C., then were then resuspended in fresh Solution B containing 2 mM heptanoic acid instead of sodium butyrate along with experimental compounds.
In addition, the efficacy of Fer-1, SRS11-92, and selected analogs was tested in a model of iron-induced cell death in freshly isolated mouse kidney proximal tubules that simulates major elements of rhabdomyolysis-induced acute kidney injury (FIG. 15C). Cell death in this model is known to involve oxidative lipid damage (Sogabe, et al., 1996, Park, et al., 2011); it was therefore believed that Fer-1 might be protective. 10 μM each of hydroxyquinoline and ferrous ammonium sulfate (HQ+Fe) were used to induce cell death, which was quantified by monitoring LDH release after 60 min. […] By implication, cell death in these models may involve, at least in part, the induction of lipid peroxidation and perhaps ferroptosis.
For orientation: LDH in the medium is a marker of cell lysis.

“Also recorded” adds a separate entry of the source. Read-outs that look alike come from different tables or passages of the source.

Broadly, the EC50 is the midpoint of the concentration-response curve.

As for `CCOC(=O)c1ccc(NC2CCCCC2)c(N)c1` [SRS8-28 (Fer-1), ethyl 3-amino-4-(cyclohexylamino)benzoate], the EC50 in test [1] (HT-1080, SI Table 2, analogs with various hydrophobic moieties) is 95 nM; in test [1] (HT-1080, SI Table 5), 88 nM; in test [1] (HT-1080, SI Table 8), 88 nM; in test [1] (HT-1080, Table 1 (Example 10), erastin (10 μM)-treated HT-1080 cells), 95 nM. For the same molecule, the “prevention of erastin-induced death” value in test [1] (erastin-treated HT-1080 cells) is “suppressed erastin-induced death”. Besides, the “intrinsic antioxidant capability in the DPPH assay” value in test [2] is recorded as “readily oxidized the stable radical”. For the same molecule, in test [3], the HT-1080 cell proliferation entry is reported as “did not inhibit ERK phosphorylation or arrest the proliferation of HT-1080 cells”. Moreover, the “effect of inhibitor on erastin-induced ROS accumulation” value in test [4] is “prevent erastin-induced accumulation of cytosolic and lipid ROS”. Also, the “HQ+Fe induced lethality (LDH release)” value in test [5] is reported as “prevented lethality; also recorded: protective”.

On to `CCOC(=O)c1ccc(NC2CCCCC2)c(NCc2ccccc2)c1` [SRS11-92, ethyl 3-(benzylamino)-4-(cyclohexylamino)benzoate], for which the “fold more potent than the parent Fer-1” value in test [1] (HT-1080, erastin (10 μM)) stood at 15 fold. In addition, the “potency compared with Fer-1” value in test [1] (HT-1080, erastin (10 μM)) is on record as “more potent than Fer-1”. Moreover, the EC50 in test [1] (HT-1080, Example 15, erastin (10 μM), HT-1080, read-out: EC50) is 6 nM; in test [1] (HT-1080, SI Table 6, read-out: EC50), 6 nM; in test [1] (HT-1080, SI Table 7, read-out: EC50), 6 nM. For the same molecule, in test [5], the “HQ+Fe induced lethality (LDH release)” value was “prevented lethality”.
